From ChEMBL document CHEMBL1135405, “Solid-phase library synthesis, screening, and selection of tight-binding reduced peptide bond inhibitors of a recombinant Leishmania mexicana cysteine protease B” (J Med Chem, 2002)
Square brackets hold non-standard residues; d marks the D form. Peptide text beside a SMILES is read from it. Phe(4-NO2) = N[C@@H](Cc1ccc([N+](=O)[O-])cc1)C(=O)O; 2Abz = Nc1ccccc1C(=O)O

Experiments:
[1] = test system: Cysteine protease B (Leishmania mexicana); test: Inhibitory potency against Cysteine protease B, expressed as kinetic constant (kcat/Km)
[2] = compound: C[C@@H](O)[C@H](NC(=O)[C@H](CCCN=C(N)N)NC(=O)[C@H](Cc1ccccc1)NC(=O)[C@H](CCCN=C(N)N)NC(=O)[C@@H]1CCCN1C(=O)[C@@H](N)Cc1ccc([N+](=O)[O-])cc1)C(=O)NCC(=O)N[C@@H](CO)C(=O)N[C@@H](CCCCNC(=O)c1ccccc1N)C(=O)NCC(=O)O; test: Inhibitory potency against Cysteine protease B, expressed as kinetic constant (Km); conditions: Leishmania mexicana

| Molecule | k cat/Km [1] | Km [2] |
| --- | --- | --- |
| C[C@@H](O)[C@H](NC(=O)[C@H](CCCN=C(N)N)NC(=O)[C@H](Cc1ccccc1)NC(=O)[C@H](CCCN=C(N)N)NC(=O)[C@@H]1CCCN1C(=O)[C@@H](N)Cc1ccc([N+](=O)[O-])cc1)C(=O)NCC(=O)N[C@@H](CO)C(=O)N[C@@H](CCCCNC(=O)c1ccccc1N)C(=O)NCC(=O)O (H-[Phe(4-NO2)]PRFRTGSK(2Abz)G-OH) | 1300 mM/s |  |
| Human rhinovirus A protease (Human rhinovirus sp.), Q4U254 (protein) AFRPCNVNTKIGNAKCCPFVCGKAVTFKDRSTCSTYNLSSSLHHILEEDKRRRQVVDVMSAIFQGPISLDAPPPPAIADLLQSVRTPRVIKYCQIIMGHPAECQVERDLNIANSIIAIIANIISIAGIIFVIYKLFCSLQGPYSGEPKPKTKVPERRVVAQGPEEEFGRSILKNNTCVITTGNGKFTGLGIHDRILIIPTHADPGREVQVNGVHTKVLDSYDLYNRDGVKLEITVIQLDRNEKFRDIRKYIPETEDDYPECNLALSANQDEPTIIKVGDVVSYGNILLSGNQTARMLKYNYPTKSGYCGGVLYKIGQILGIHVGGNGRDGFSAMLLRSYFTGQIKVNKHATECGLPDIQTIHTPSKTKLQPSVFYDVFPGSKEPAVLTDNDPRLEVNFKEA |  | 1.13 µM |
